Measurements from article PMC11173508, “Pharmacokinetics and Tissue Distribution of Itampolin A following Intragastric and Intravenous Administration in Rats Using Ultra-High-Performance Liquid Chromatography–Tandem Mass Spectrometry” (Molecules, 2024).
Where two headings read alike, the source gives them in different places.

Experiments:
[1] = Pharmacokinetic study in rats after intragastric and intravenous administration (UHPLC-MS/MS of plasma); format: in vivo, Sprague–Dawley rats; settings: for MRT inf: n = 6, read-out: MRT0–∞; for k el: n = 6, read-out: ke (converted); for bioavailability: F = Doseiv × AUCig/(Doseig × AUCiv) × 100%, read-out: absolute bioavailability (F)
Protocol: (§1) Sprague–Dawley rats (250 ± 20 g) were supplied from the Experimental Animal Centre of China Medical University (Shenyang, China) and housed under unified conditions. All of the animal experiments were conducted in compliance with the Guidelines for Care and Use of Laboratory Animals of China Medical University and the protocols were approved by the Animal Ethics Committee of the institution (code number: CMU2023205). The rats were raised in a standard environment with a temperature of 24 ± 2 °C, relative humidity of 55 ± 10%, and 12 h light/12 h dark cycles. These rats were acclimatized to the environment for at least one week before the experiment, provided free access to drinking water, and fed during this period. Twenty-four SD rats, which were divided into four groups (six rats per group), received 5 mg/kg itampolin A by intravenous administration or 10, 25, and 50 mg/kg itampolin A by intragastric administration for the pharmacokinetics experiments. Twenty SD rats (five rats for each time point) received 25 mg/kg itampolin A by intragastric administration for the tissue distribution study.
The simple protein precipitation extraction technique using methanol as the precipitating solvent was applied to extract itampolin A and IS from biological samples [23, 24]. The 100 µL of plasma sample, 50 µL of IS working solution, and 200 µL of methanol were added in 500 µL microcentrifuge tubes to precipitate proteins. After vortexing for 1 min, the samples were centrifuged at 12,000 rpm for 10 min to remove the denatured protein. Subsequently, the supernatant was transferred into another tube and evaporated to dryness with a stream of nitrogen at 35 °C. The remains were reconstituted in 100 µL of initial mobile phase, briefly vortexed, and centrifuged at 12,000 rpm for 10 min. Then, 10 µL of the supernatant was transferred to sampling vials for the UHPLC-MS/MS system.
For both intragastric and intravenous administration, itampolin A was dissolved in polyethylene glycol (PEG)-saline (1:3, PEG: 380–420) for the preparation of dosing solutions. Eighteen Sprague–Dawley rats were divided into three groups randomly (six rats each). The rats of each group were weighed, and then given a single dose of 10 mg/kg, 25 mg/kg, and 50 mg/kg itampolin A via intragastric administration, respectively. Blood samples (200 µL) were obtained from orbital vein into heparinized centrifuge tubes at 0.083, 0.25, 0.5, 0.75, 1, 1.5, 2, 3, 4, 6, 8, 12, and 24 h after drug administration.
Six Sprague–Dawley rats were weighed, and then given a single dose of 5 mg/kg of itampolin A via intravenous administration. Blood samples (200 µL) were obtained from orbital vein into heparinized centrifuge tubes at 0.033, 0.083, 0.167, 0.25, 0.5, 0.75, 1, 1.5, 2, 3, 4, 8, and 12 h after drug administration. The blood samples obtained from both intragastric and intravenous administration were immediately separated by centrifugation at 12,000 rpm for 10 min, and then the supernatant plasma was gathered and stored at −20 °C prior to analysis.
The pharmacokinetic parameters were calculated by non-compartmental model using the DAS 3.2.8 software. All data were presented as mean ± SD.

[2] = Tissue distribution study in rats after intragastric administration; format: in vivo, Sprague–Dawley rats; settings: intragastric 25 mg/kg
Protocol: as §1
Various tissues (heart, liver, spleen, lung, kidney, brain, intestine, and stomach) were harvested and washed with ice-cold 0.9% sodium chloride solution to remove the superficial blood. After being blotted dry with filter paper, each tissue sample weighed accurately was homogenized in 0.9% sodium chloride solution (1:5, w/v). Then, 100 µL of tissue homogenate was taken and processed further like the plasma sample.
Twenty Sprague–Dawley rats were randomly divided into four groups (five rats each) and received a single dose of 25 mg/kg of itampolin A via intragastric administration. The rats were executed by cervical dislocation at 1, 4, 8, and 12 h. Afterwards, various tissue samples, including heart, liver, spleen, lung, kidney, brain, intestine, and stomach, were collected into centrifuged tubes, and then processed with the methods described in “3.5. Sample Preparation”.

[3] = system: non-small-cell lung cancer; design: method as in doi:10.2174/1570179414666170215092631; settings: cited from earlier work
[4] = Solubility in normal saline; format: physicochemical
p38α = system: p38α; design: method as in PMID 30642059; settings: binding to the DFG-out conformation of p38α; cited from earlier work
[5] = Sprague-Dawley, rat, iv, i.v. 5 mg/kg, plasma, mean ± SD, n = 6
[6] = Sprague-Dawley, rat, iv, i.v. 5 mg/kg, plasma, mean ± SD
[7] = Sprague-Dawley, rat, plasma, iv, 5 mg/kg, i.v. 5 mg/kg, mean ± SD, n = 6
[8] = Sprague-Dawley, rat, plasma, po, 10 mg/kg, i.g. low dose 10 mg/kg, mean ± SD, n = 6
[9] = Sprague-Dawley, rat, plasma, po, 25 mg/kg, i.g. mid dose 25 mg/kg, mean ± SD, n = 6
[10] = Sprague-Dawley, rat, plasma, po, 50 mg/kg, i.g. high dose 50 mg/kg, mean ± SD, n = 6
[11] = Sprague-Dawley, rat, po, i.g. high dose 50 mg/kg, plasma, mean ± SD, n = 6
[12] = Sprague-Dawley, rat, po, i.g. high dose 50 mg/kg, plasma, mean ± SD
[13] = Sprague-Dawley, rat, po, i.g. low dose 10 mg/kg, plasma, mean ± SD, n = 6
[14] = Sprague-Dawley, rat, po, i.g. low dose 10 mg/kg, plasma, mean ± SD
[15] = Sprague-Dawley, rat, po, i.g. mid dose 25 mg/kg, plasma, mean ± SD, n = 6
[16] = Sprague-Dawley, rat, po, i.g. mid dose 25 mg/kg, plasma, mean ± SD
[17] = i.g. high dose 50 mg/kg, plasma, mean ± SD, n = 6
[18] = i.g. low dose 10 mg/kg, plasma, mean ± SD, n = 6
[19] = i.g. mid dose 25 mg/kg, plasma, mean ± SD, n = 6
[20] = intragastric 10, 25 and 50 mg/kg
[21] = measured within 12 h, mean ± SD, n = 5

Compound: COc1c(Br)cc(C[C@H](NC(=O)Cc2ccc(OCCCNC(C)=O)cc2)C(=O)NCCc2cc(Br)c(O)c(Br)c2)cc1Br [itampolin A, Itampolin A]
- AUC(0-inf) [1, 5]: 2830 ± 110 ng·h/mL
- AUC(0-t) [1, 5]: 978 ± 26.2 ng·h/mL
- Cmax [1, 5]: 1340 ± 52.2 ng/mL
- clearance [1, 5]: 30 mL/min/kg
- MRT inf [1, 6]: 4.8 ± 0.3 h
- Vd ([1]; Sprague-Dawley, rat, iv, i.v. 5 mg/kg, plasma, mean ± SD, n = 6, read-out: Vd): 6.6 ± 0.4 L/kg
- k el [1, 6]: 7.5e-05 s⁻¹
- Tmax [1, 7]: 0.03 h
- half-life [1, 7]: 2.6 ± 0.2 h
- bioavailability ([1]; Sprague-Dawley, rat, plasma, oral dose 10 mg/kg vs i.v. 5 mg/kg): 18.8%
- bioavailability ([1]; Sprague-Dawley, rat, plasma, oral dose 25 mg/kg vs i.v. 5 mg/kg): 13.7%
- bioavailability ([1]; Sprague-Dawley, rat, plasma, oral dose 50 mg/kg vs i.v. 5 mg/kg): 11.2%
- Tmax [1, 8]: 1.7 ± 0.2 h
- half-life [1, 8]: 2.6 ± 0.3 h
- Tmax [1, 9]: 1.7 ± 0.2 h
- half-life [1, 9]: 2.3 ± 0.2 h
- Tmax [1, 10]: 0.9 ± 0.1 h
- half-life [1, 10]: 2.1 ± 0.2 h
- half-life ([1]; Sprague-Dawley, rat, plasma, po, 50 mg/kg, intragastric 10, 25 and 50 mg/kg, range over the three doses): 2.1 to 2.6 h
- Tmax ([1]; Sprague-Dawley, rat, plasma, po, 50 mg/kg, intragastric 10, 25 and 50 mg/kg, summary over the three doses): < 1.7 h
- AUC(0-inf) [1, 11]: 3190 ± 94.7 ng·h/mL
- AUC(0-t) [1, 11]: 2640 ± 44.6 ng·h/mL
- Cmax [1, 11]: 807 ± 36.9 ng/mL
- MRT inf [1, 12]: 3.7 ± 0.2 h
- k el [1, 12]: 9.17e-05 s⁻¹
- AUC(0-inf) [1, 13]: 1080 ± 55.8 ng·h/mL
- AUC(0-t) [1, 13]: 939 ± 34.9 ng·h/mL
- Cmax [1, 13]: 283 ± 20 ng/mL
- MRT inf [1, 14]: 4.6 ± 0.5 h
- k el [1, 14]: 7.5e-05 s⁻¹
- AUC(0-inf) [1, 15]: 1940 ± 116 ng·h/mL
- AUC(0-t) [1, 15]: 1540 ± 44.9 ng·h/mL
- Cmax [1, 15]: 412 ± 13.7 ng/mL
- MRT inf [1, 16]: 4.2 ± 0.3 h
- k el [1, 16]: 8.33e-05 s⁻¹
- CL [1, 17]: 207 ± 6.7 mL/min/kg
- Vd [1, 17]: 44.6 ± 2.8 L/kg
- CL [1, 18]: 185 ± 8.3 mL/min/kg
- Vd [1, 18]: 42.2 ± 2.9 L/kg
- CL [1, 19]: 215 ± 13 mL/min/kg
- Vd [1, 19]: 43.9 ± 1.7 L/kg
- correlation coefficient of AUC0–t versus dose (dose linearity) [1, 20]: 0.999
- correlation coefficient of AUC0–∞ versus dose (dose linearity) [1, 20]: 0.998
- correlation coefficient of Cmax versus dose (dose linearity) [1, 20]: 0.981
- concentration in the brain [2]: lower concentration in the brain
- distribution in the heart and spleen [2]: low distribution level and rapid elimination
- highest concentration in intestine [2, 21]: 378.2 ± 36.8 ng/mL
- highest concentration in kidney [2, 21]: 497.7 ± 51.9 ng/mL
- highest concentration in liver [2, 21]: 418.8 ± 40.3 ng/mL
- highest concentration in lung [2, 21]: 800.6 ± 79.0 ng/mL
- highest concentration in stomach [2, 21]: 429.6 ± 27.2 ng/mL
- anticancer activity against non-small-cell lung cancer [3]: significant anticancer activity
- solubility in normal saline [4]: small
- phospho-p38α expression (p38α): decreasing the phospho-p38α expression
